Data reported in patent US10227331B2 (priority 2015, dated 2019).

How the values were obtained:
IMP-1 = IMP-1 (Serratia marcescens, UniProt P52699); assay: biochemical; assay type: biochemical; conditions: CCF2-FA substrate, 2 hours at 25° C; read-out: IMP-1 IC50
In short: (§1)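 Test compound, enzyme and the FRET cephalosporin substrate CCF2-FA are incubated together for 2 hours at 25° C. Cleavage is followed by fluorescence, and IC50 values are derived from semi-logarithmic inhibition curves fitted with a 4-parameter model.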

NDM-1 = NDM-1 (Klebsiella pneumoniae, UniProt C7C422); assay: biochemical; assay type: biochemical; conditions: CCF2-FA substrate, 2 hours at 25° C; read-out: NDM-1 IC50
Sequence of NDM-1 (C7C422 whole entry, looked up, species assumed): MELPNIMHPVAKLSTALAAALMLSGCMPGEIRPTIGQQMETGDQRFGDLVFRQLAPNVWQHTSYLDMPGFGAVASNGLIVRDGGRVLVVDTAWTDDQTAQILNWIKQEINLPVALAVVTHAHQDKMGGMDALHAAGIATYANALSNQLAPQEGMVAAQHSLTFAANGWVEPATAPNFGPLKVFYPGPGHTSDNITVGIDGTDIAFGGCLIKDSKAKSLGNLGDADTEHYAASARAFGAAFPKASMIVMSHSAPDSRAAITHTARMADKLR
In short: as §1

VIM-1 = VIM-1 (Pseudomonas aeruginosa (strain ATCC 15692 / DSM 22644 / CIP 104116 / JCM 14847 / LMG 12228 / 1C / PRS 101 / PAO1), UniProt A0A0F7KYQ8); assay: biochemical; conditions: CCF2-FA substrate, 2 hours at 25° C
In short: as §1

[1] = system: Escherichia coli expressing NDM-1 (CLB30005, CLB30016); assay type: cell-based; conditions: with imipenem 1 μg/ml, 95% inhibition of bacterial growth; for Escherichia coli MITC95: NDM-1 (CLB30016)
In short: (§2)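 Clinical strains grown overnight on blood agar, then diluted 1:100 in 1.1× CAMHB and exposed to test compound with imipenem at 1 μg/ml. Incubation was 22–24 h at 35° C; growth was read by absorbance to find the compound concentration restoring imipenem susceptibility.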

[2] = system: Klebsiella pneumoniae expressing VIM-1 (IHMA599644); assay type: cell-based; conditions: with imipenem 1 μg/ml, 95% inhibition of bacterial growth; for Klebsiella pneumoniae MITC95: VIM-1 (IHMA599644)
In short: as §2

[3] = system: Serratia marcescens expressing IMP-1 (CL5741); assay type: cell-based; conditions: with imipenem 1 μg/ml, 95% inhibition of bacterial growth; for Serratia marcescens MITC95: IMP-1 (CL5741)
In short: as §2

[4] = system: P. aeruginosa expressing IMP-1, efflux+ (MB9798); assay type: cell-based, Pseudomonas aeruginosa; conditions: for P. aeruginosa expressing IMP-1, efflux+ (MB9798) MITC95: imipenem at 2 μg/mL, in the presence of a class A, C, D serine β-lactamase inhibitor closely related to relebactam; for Efflux ratio: ratio MITC95 PA_9798/MITC95 PA_9799
From the text: (§3) The strain background is Pseudomonas aeruginosa PAO1.

[5] = system: P. aeruginosa expressing IMP-1, efflux− (MB9799); assay: Efflux: concentration of MBL inhibitor which restores susceptibility to imipenem; assay type: cell-based, Pseudomonas aeruginosa; conditions: imipenem at 2 μg/mL, in the presence of a class A, C, D serine β-lactamase inhibitor closely related to relebactam
From the text: as §3

Sequence of IMP-1 (P52699 whole entry, looked up, species assumed): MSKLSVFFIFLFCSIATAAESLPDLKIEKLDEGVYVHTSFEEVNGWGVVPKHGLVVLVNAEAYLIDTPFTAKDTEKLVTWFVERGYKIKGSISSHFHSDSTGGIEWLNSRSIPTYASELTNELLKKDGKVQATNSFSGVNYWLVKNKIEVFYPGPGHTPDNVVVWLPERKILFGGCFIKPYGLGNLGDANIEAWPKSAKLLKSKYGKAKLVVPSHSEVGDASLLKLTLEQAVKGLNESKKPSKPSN

## Cc1n[nH]c2cc(F)c(-c3ccc(S(=O)(=O)CCN)c(S(N)(=O)=O)c3-c3nnn[nH]3)cc12.O=C(O)C(F)(F)F [Example 162, 2-((4-(6-fluoro-3-methyl-1H-indazol-5-yl)-2-sulfamoyl-3-(1H-tetrazol-5-yl)phenyl)sulfonyl)ethanaminium 2,2,2-trifluoroacetate]
IMP-1
  IC50: 2.81 nM
NDM-1
  IC50: 2.78 nM
VIM-1
  IC50: 0.32 nM
[1]
  Escherichia coli expressing NDM-1 (CLB30016) MITC95: 3.125 µM
[2]
  Klebsiella pneumoniae expressing VIM-1 (IHMA599644) MITC95: 6.25 µM
[3]
  Serratia marcescens expressing IMP-1 (CL5741) MITC95: 3.125 µM
[4]
  P. aeruginosa expressing IMP-1, efflux+ (MB9798) MITC95: 100 µM
  Efflux ratio: 63.98
[5]
  P. aeruginosa expressing IMP-1, efflux− (MB9799) MITC95: 1.563 µM

## CS(=O)(=O)N1CCC(S(=O)(=O)c2ccc(-c3cccc4nc(N)[nH]c34)c(-c3nn[nH]n3)c2S(N)(=O)=O)CC1 [Example 45, 3-(2-amino-3H-benzo[d]imidazol-4-yl)-6-(1-(methylsulfonyl)piperidin-4-ylsulfonyl)-2-(2H-tetrazol-5-yl)benzenesulfonamide]
IMP-1
  IC50: 1.69 nM
NDM-1
  IC50: 0.29 nM
VIM-1
  IC50: 0.135 nM
[1]
  Escherichia coli expressing NDM-1 (CLB30016) MITC95: 25 µM
[2]
  Klebsiella pneumoniae expressing VIM-1 (IHMA599644) MITC95: 6.25 µM
[3]
  Serratia marcescens expressing IMP-1 (CL5741) MITC95: 6.25 µM
[4]
  P. aeruginosa expressing IMP-1, efflux+ (MB9798) MITC95: 50 µM
  Efflux ratio: 16.00
[5]
  P. aeruginosa expressing IMP-1, efflux− (MB9799) MITC95: 3.125 µM

## CS(=O)(=O)c1ccc(-c2cnc3ccccn23)c(-c2nn[nH]n2)c1S(N)(=O)=O [Example 238, 3-(Imidazo[1,2-a]pyridin-3-yl)-6-(methylsulfonyl)-2-(2H-tetrazol-5-yl) benzenesulfonamide]
IMP-1
  IC50: 0.333 nM
NDM-1
  IC50: 0.862 nM
VIM-1
  IC50: 0.201 nM
[1]
  Escherichia coli expressing NDM-1 (CLB30016) MITC95: 3.125 µM
[2]
  Klebsiella pneumoniae expressing VIM-1 (IHMA599644) MITC95: 6.25 µM
[3]
  Serratia marcescens expressing IMP-1 (CL5741) MITC95: 3.125 µM
[4]
  P. aeruginosa expressing IMP-1, efflux+ (MB9798) MITC95: 50 µM
  Efflux ratio: 31.99
[5]
  P. aeruginosa expressing IMP-1, efflux− (MB9799) MITC95: 1.563 µM

## NCCS(=O)(=O)c1ccc(-c2cccn3ccnc23)c(-c2nnn[nH]2)c1S(N)(=O)=O [Example 64, 6-((2-Aminoethyl)sulfonyl)-3-(imidazo[1,2-a]pyridin-8-yl)-2-(1H-tetrazol-5-yl)benzenesulfonamide]
IMP-1
  IC50: 0.359 nM
NDM-1
  IC50: 1.06 nM
VIM-1
  IC50: 0.339 nM
[1]
  Escherichia coli expressing NDM-1 (CLB30016) MITC95: 1.563 µM
[2]
  Klebsiella pneumoniae expressing VIM-1 (IHMA599644) MITC95: 3.125 µM
[3]
  Serratia marcescens expressing IMP-1 (CL5741) MITC95: 1.563 µM
[4]
  P. aeruginosa expressing IMP-1, efflux+ (MB9798) MITC95: 1.563 µM
  Efflux ratio: 1.00
[5]
  P. aeruginosa expressing IMP-1, efflux− (MB9799) MITC95: 1.563 µM

## Nc1nc2c(-c3ccc(S(=O)(=O)C4CNC4)c(S(N)(=O)=O)c3-c3nn[nH]n3)ccc(C(F)(F)F)c2s1 [Example 34, 3-(2-amino-7-(trifluoromethyl)benzo[d]thiazol-4-yl)-6-(azetidin-3-ylsulfonyl)-2-(2H-tetrazol-5-yl)benzenesulfonamide]
IMP-1
  IC50: 0.229 nM
NDM-1
  IC50: 0.0713 nM
VIM-1
  IC50: 0.175 nM
[1]
  Escherichia coli expressing NDM-1 (CLB30016) MITC95: 0.7813 µM
[2]
  Klebsiella pneumoniae expressing VIM-1 (IHMA599644) MITC95: 1.563 µM
[3]
  Serratia marcescens expressing IMP-1 (CL5741) MITC95: 0.7813 µM
[4]
  P. aeruginosa expressing IMP-1, efflux+ (MB9798) MITC95: 6.25 µM
  Efflux ratio: 8.00
[5]
  P. aeruginosa expressing IMP-1, efflux− (MB9799) MITC95: 0.7813 µM

## NS(=O)(=O)c1c(S(=O)(=O)C2CNC2)ccc(-c2cccc(C3CCC(=O)N3)c2)c1-c1nnn[nH]1.O=C(O)C(F)(F)F (stereo not drawn) [Example 125, 3-((3′-(5-oxopyrrolidin-2-yl)-3-sulfamoyl-2-(1H-tetrazol-5-yl)-[1,1′-biphenyl]-4-yl)sulfonyl)azetidin-1-ium 2,2,2-trifluoroacetate]
IMP-1
  IC50: 5.23 nM
NDM-1
  IC50: 4.02 nM
VIM-1
  IC50: 2.54 nM
[1]
  Escherichia coli expressing NDM-1 (CLB30016) MITC95: 6.25 µM
[2]
  Klebsiella pneumoniae expressing VIM-1 (IHMA599644) MITC95: 6.25 µM
[3]
  Serratia marcescens expressing IMP-1 (CL5741) MITC95: 6.25 µM
[4]
  P. aeruginosa expressing IMP-1, efflux+ (MB9798) MITC95: 50 µM
  Efflux ratio: 16.00
[5]
  P. aeruginosa expressing IMP-1, efflux− (MB9799) MITC95: 3.125 µM

## NCc1nc2c(-c3ccc(S(=O)(=O)C[C@@H](O)CN)c(S(N)(=O)=O)c3-c3nn[nH]n3)cccc2[nH]1 [Example 369, (S)-6-((3-amino-2-hydroxypropyl)sulfonyl)-3-(2-(aminomethyl)-1H-benzo[d]imidazol-4-yl)-2-(2H-tetrazol-5-yl) benzenesulfonamide]
IMP-1
  IC50: 3.57 nM
NDM-1
  IC50: 0.973 nM
VIM-1
  IC50: 0.401 nM
[1]
  Escherichia coli MITC95: 0.7813 µM
[2]
  Klebsiella pneumoniae MITC95: 1.563 µM
[3]
  Serratia marcescens MITC95: 0.7813 µM
[4]
  P. aeruginosa expressing IMP-1, efflux+ (MB9798) MITC95: 0.7813 µM
  Efflux ratio: 1.00
[5]
  P. aeruginosa expressing IMP-1, efflux− (MB9799) MITC95: 0.7813 µM

## CS(=O)(=O)c1ccc(-c2cccc3nc(N)[nH]c23)c(-c2nn[nH]n2)c1S(N)(=O)=O [Example 240, 3-(2-Amino-1H-benzo[d]imidazol-7-yl)-6-(methylsulfonyl)-2-(2H-tetrazol-5-yl) benzenesulfonamide]
IMP-1
  IC50: 7.46 nM
NDM-1
  IC50: 4.77 nM
VIM-1
  IC50: 2.6 nM
[1]
  Escherichia coli expressing NDM-1 (CLB30016) MITC95: 3.125 µM
[2]
  Klebsiella pneumoniae expressing VIM-1 (IHMA599644) MITC95: 25 µM
[3]
  Serratia marcescens expressing IMP-1 (CL5741) MITC95: 12.5 µM
[4]
  P. aeruginosa expressing IMP-1, efflux+ (MB9798) MITC95: 50 µM
  Efflux ratio: 4.00
[5]
  P. aeruginosa expressing IMP-1, efflux− (MB9799) MITC95: 12.5 µM

## Nc1nc2c(-c3ccc(S(=O)(=O)CCO)c(S(N)(=O)=O)c3-c3nn[nH]n3)cccc2s1 [Example 314, 3-(2-aminobenzo[d]thiazol-4-yl)-6-((2-hydroxyethyl)sulfonyl)-2-(2H-tetrazol-5-yl)benzenesulfonamide]
IMP-1
  IC50: 0.445 nM
NDM-1
  IC50: 0.379 nM
VIM-1
  IC50: 0.727 nM
[1]
  Escherichia coli MITC95: 12.5 µM
[2]
  Klebsiella pneumoniae MITC95: 12.5 µM
[3]
  Serratia marcescens MITC95: 6.25 µM
[4]
  P. aeruginosa expressing IMP-1, efflux+ (MB9798) MITC95: 12.5 µM
  Efflux ratio: 2.00
[5]
  P. aeruginosa expressing IMP-1, efflux− (MB9799) MITC95: 6.25 µM

## N=C(N)Nc1ccccc1-c1ccc(S(=O)(=O)C2CNC2)c(S(N)(=O)=O)c1-c1nn[nH]n1 [Example 221, 4-(azetidin-3-ylsulfonyl)-2′-guanidino-2-(2H-tetrazol-5-yl)-[1,1′-biphenyl]-3-sulfonamide]
IMP-1
  IC50: 44 nM
NDM-1
  IC50: 5.13 nM
VIM-1
  IC50: 6.95 nM
[1]
  Escherichia coli expressing NDM-1 (CLB30016) MITC95: 6.25 µM
[2]
  Klebsiella pneumoniae expressing VIM-1 (IHMA599644) MITC95: 12.5 µM
[3]
  Serratia marcescens expressing IMP-1 (CL5741) MITC95: 12.5 µM
[4]
  P. aeruginosa expressing IMP-1, efflux+ (MB9798) MITC95: 50 µM
  Efflux ratio: 16.00
[5]
  P. aeruginosa expressing IMP-1, efflux− (MB9799) MITC95: 3.125 µM

## Cc1ccc(-c2ccc(S(=O)(=O)CCN)c(S(N)(=O)=O)c2-c2nn[nH]n2)c2nc(N)[nH]c12 [Example 23, 3-(2-amino-7-methyl-1H-benzo[d]imidazol-4-yl)-6-((2-aminoethyl)sulfonyl)-2-(2H-tetrazol-5-yl)benzenesulfonamide]
IMP-1
  IC50: 0.352 nM
NDM-1
  IC50: 0.123 nM
VIM-1
  IC50: 0.0986 nM
[1]
  Escherichia coli expressing NDM-1 (CLB30016) MITC95: 0.3906 µM
[2]
  Klebsiella pneumoniae expressing VIM-1 (IHMA599644) MITC95: 0.7813 µM
[3]
  Serratia marcescens expressing IMP-1 (CL5741) MITC95: 0.7813 µM
[4]
  P. aeruginosa expressing IMP-1, efflux+ (MB9798) MITC95: 0.7813 µM
  Efflux ratio: 2.00
[5]
  P. aeruginosa expressing IMP-1, efflux− (MB9799) MITC95: 0.3906 µM

## CS(=O)(=O)c1ccc(-c2ccc(C3CCNCC3)cc2)c(-c2nnn[nH]2)c1S(N)(=O)=O [Example 236, 4-(methylsulfonyl)-4′-(piperidin-4-yl)-2-(1H-tetrazol-5-yl)-[1,1′-biphenyl]-3-sulfonamide]
IMP-1
  IC50: 0.103 nM
NDM-1
  IC50: 2.12 nM
VIM-1
  IC50: 0.127 nM
[1]
  Escherichia coli expressing NDM-1 (CLB30016) MITC95: 3.125 µM
[2]
  Klebsiella pneumoniae expressing VIM-1 (IHMA599644) MITC95: 3.125 µM
[3]
  Serratia marcescens expressing IMP-1 (CL5741) MITC95: 3.125 µM
[4]
  P. aeruginosa expressing IMP-1, efflux+ (MB9798) MITC95: 6.25 µM
  Efflux ratio: 8.00
[5]
  P. aeruginosa expressing IMP-1, efflux− (MB9799) MITC95: 0.7813 µM

## NCCS(=O)(=O)c1ccc(-c2ccc3c(c2)CNC3=O)c(-c2nnn[nH]2)c1S(N)(=O)=O.O=C(O)C(F)(F)F [Example 166, 2-((4-(1-oxoisoindolin-5-yl)-2-sulfamoyl-3-(1H-tetrazol-5-yl)phenyl)sulfonyl)ethanaminium 2,2,2-trifluoroacetate]
IMP-1
  IC50: 1.51 nM
NDM-1
  IC50: 2.79 nM
VIM-1
  IC50: 0.327 nM
[1]
  Escherichia coli expressing NDM-1 (CLB30016) MITC95: 1.563 µM
[2]
  Klebsiella pneumoniae expressing VIM-1 (IHMA599644) MITC95: 6.25 µM
[3]
  Serratia marcescens expressing IMP-1 (CL5741) MITC95: 3.125 µM
[4]
  P. aeruginosa expressing IMP-1, efflux+ (MB9798) MITC95: 12.5 µM
  Efflux ratio: 8.00
[5]
  P. aeruginosa expressing IMP-1, efflux− (MB9799) MITC95: 1.563 µM
